[1] abbreviates: before exposure to heat or light.
Setting [2] is: before exposure to heat or light, Hydrochloride.
Setting [3] is: stress condition 45° C., Hydrochloride.
Where [4] appears, read: stress condition 60° C., Hydrochloride.
Where [5] appears, read: stress condition UV, Hydrochloride.

Structures can show the parent of a compound that is named as a salt. Where two headings read alike, the source gives them in different places.

In the case of `CNCC[C@H](Oc1cccc2ccccc12)c1cccs1` [DULOXETINE HCI (from free base), Duloxetine Hydrochloride], the Description result is, setting by setting: under setting [1], “White powder”; under setting [3], “White powder”; under setting [4], “White powder”; under setting [5], “Cream”. The “SMI (single maximum impurity)” value under setting [2] is 0.05%, the “SMI (single maximum impurity)” value under setting [3] stood at 0.07%, the “SMI (single maximum impurity)” value under setting [4] worked out at 0.07% and the “SMI (single maximum impurity)” value under setting [5] was found to be 0.06%. In addition, the Total imp under setting [2] is reported as 0.11%, the Total imp under setting [3] came to 0.12%, the Total imp under setting [4] came to 0.12% and the Total imp under setting [5] amounted to 0.11%. Moreover, for the setting “compared with duloxetine hydrochloride prepared by conventional prior art methods”, the resistance to degradation entry is “more resistant to degradation”.

For the compound `CNCC[C@H](Oc1cccc2ccccc12)c1cccs1` [[…] (from prior art)] [Duloxetine Hydrochloride, reference compound], the Description entry under setting [1] is “White powder”, the Description entry under setting [3] was “Cream coloured”, the Description entry under setting [4] is on record as “Light pink” and the Description result under setting [5] is “Light brown”. For the same compound, the “SMI (single maximum impurity)” value under setting [2] turned out to be 0.20%, the “SMI (single maximum impurity)” value under setting [3] was found to be 0.19%, the “SMI (single maximum impurity)” value under setting [4] amounted to 0.19% and the “SMI (single maximum impurity)” value under setting [5] was 0.19%. Further, the Total imp is recorded as 0.48% under setting [2], 0.65% under setting [3], 0.70% under setting [4] and 0.66% under setting [5].

Source of the values: patent US20070167513A1, “Crystalline forms of duloxetine free base” (priority 2004, published 2007).
